# US9499535B2, “Kinase inhibitors” (ORIGENIS GMBH, priority 2011, dated 2016)
# Tests used:
# MYLK = MYLK (Homo sapiens, UniProt Q15746); test: MYLK assay (LanthaScreen Eu Kinase Binding Assay); conditions: 5 nM MYLK, 30 nM tracer 236, RT 1 h; read-out: MYLK Activites: IC50
# Summary of the method: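 TR-FRET tracer-displacement binding: 5 nM MYLK with 2 nM Eu-anti-GST antibody and 30 nM tracer 236 in kinase buffer A, 1 h at RT. The 665/615 nm emission ratio was plotted against inhibitor concentration; IC50 from variable-slope sigmoidal fit.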
# SYK kinase = target: T1, SYK kinase (Homo sapiens, UniProt P43405); test: SYK assay (OMNIA Kinase Assay, Invitrogen); format: biochemical; conditions: apparent Ki calculated from the IC50 using the Cheng-Prusoff equation; 1 mM ATP, 10 μM Peptide Substrate; read-out: SYK Activities: Ki
# T1 construct: purchased Invitrogen, Carlsbad
# Summary of the method: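 Reaction velocities were measured from kinetic fluorescence reads (360/485 nm, every 30 s over 30 min) of Mg2+-chelated SOX signal. Conditions were 1 mM ATP, 10 μM Omnia Tyr 7 peptide and 0.2 mM DTT at 30° C. Sigmoidal IC50 fits were converted to apparent Ki using Cheng-Prusoff.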
# LRRK2 = LRRK2 (Homo sapiens, UniProt Q5S007); test: LRRK2 assay (LanthaScreen Eu Kinase Binding Assay); conditions: 5 nM LRRK2, 10 nM tracer 236, RT 1 h; read-out: LRRK2 Activites: IC50
# Sequence of LRRK2 (Q5S007 970-2527 limits assumed): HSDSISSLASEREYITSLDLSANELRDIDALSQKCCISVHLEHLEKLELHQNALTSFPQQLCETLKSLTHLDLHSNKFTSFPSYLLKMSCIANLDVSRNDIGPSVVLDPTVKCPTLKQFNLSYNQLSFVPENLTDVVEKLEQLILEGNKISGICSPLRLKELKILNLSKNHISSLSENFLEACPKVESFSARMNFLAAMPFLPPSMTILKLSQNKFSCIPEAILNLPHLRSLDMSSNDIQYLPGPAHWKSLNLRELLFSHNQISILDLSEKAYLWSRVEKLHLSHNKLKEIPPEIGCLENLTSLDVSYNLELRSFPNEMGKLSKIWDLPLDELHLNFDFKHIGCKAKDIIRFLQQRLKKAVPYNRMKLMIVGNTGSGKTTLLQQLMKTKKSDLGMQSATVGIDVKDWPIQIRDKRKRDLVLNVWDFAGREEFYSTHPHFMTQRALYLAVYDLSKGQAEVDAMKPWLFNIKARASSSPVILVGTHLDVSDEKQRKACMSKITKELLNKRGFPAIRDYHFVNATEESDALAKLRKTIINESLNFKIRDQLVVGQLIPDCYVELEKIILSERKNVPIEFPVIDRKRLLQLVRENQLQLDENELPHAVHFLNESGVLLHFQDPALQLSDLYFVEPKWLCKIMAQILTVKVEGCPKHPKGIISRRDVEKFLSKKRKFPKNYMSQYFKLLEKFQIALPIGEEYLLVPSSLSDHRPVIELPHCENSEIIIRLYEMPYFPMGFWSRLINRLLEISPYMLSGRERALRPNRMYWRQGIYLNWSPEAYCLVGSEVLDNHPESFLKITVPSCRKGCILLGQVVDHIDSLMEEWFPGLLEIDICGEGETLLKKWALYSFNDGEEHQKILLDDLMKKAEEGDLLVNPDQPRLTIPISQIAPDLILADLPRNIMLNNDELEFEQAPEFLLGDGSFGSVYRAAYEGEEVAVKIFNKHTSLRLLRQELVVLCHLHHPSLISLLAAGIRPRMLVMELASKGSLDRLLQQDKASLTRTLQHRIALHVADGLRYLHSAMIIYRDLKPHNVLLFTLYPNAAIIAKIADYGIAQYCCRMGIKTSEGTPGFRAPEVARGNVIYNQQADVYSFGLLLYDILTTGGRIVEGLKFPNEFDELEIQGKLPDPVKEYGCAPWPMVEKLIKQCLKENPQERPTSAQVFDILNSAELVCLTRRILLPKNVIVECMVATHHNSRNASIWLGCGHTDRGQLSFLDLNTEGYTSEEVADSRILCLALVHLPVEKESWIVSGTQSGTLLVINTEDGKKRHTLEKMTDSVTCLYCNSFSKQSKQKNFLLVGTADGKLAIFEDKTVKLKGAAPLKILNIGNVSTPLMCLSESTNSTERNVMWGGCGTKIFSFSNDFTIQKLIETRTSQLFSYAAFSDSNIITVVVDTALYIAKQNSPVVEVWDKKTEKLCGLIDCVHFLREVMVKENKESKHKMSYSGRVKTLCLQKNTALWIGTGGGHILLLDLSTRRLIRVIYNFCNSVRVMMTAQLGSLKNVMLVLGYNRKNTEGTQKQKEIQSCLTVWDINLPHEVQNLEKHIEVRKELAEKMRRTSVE
# Summary of the method: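 IC50 was derived from a sigmoidal dose-response fit with variable slope, plotting emission ratio against inhibitor concentration. The read-out is loss of FRET between a europium-labelled anti-tag antibody on the kinase and a tracer displaced by inhibitor.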
# Sequence of MYLK (Q15746 whole entry): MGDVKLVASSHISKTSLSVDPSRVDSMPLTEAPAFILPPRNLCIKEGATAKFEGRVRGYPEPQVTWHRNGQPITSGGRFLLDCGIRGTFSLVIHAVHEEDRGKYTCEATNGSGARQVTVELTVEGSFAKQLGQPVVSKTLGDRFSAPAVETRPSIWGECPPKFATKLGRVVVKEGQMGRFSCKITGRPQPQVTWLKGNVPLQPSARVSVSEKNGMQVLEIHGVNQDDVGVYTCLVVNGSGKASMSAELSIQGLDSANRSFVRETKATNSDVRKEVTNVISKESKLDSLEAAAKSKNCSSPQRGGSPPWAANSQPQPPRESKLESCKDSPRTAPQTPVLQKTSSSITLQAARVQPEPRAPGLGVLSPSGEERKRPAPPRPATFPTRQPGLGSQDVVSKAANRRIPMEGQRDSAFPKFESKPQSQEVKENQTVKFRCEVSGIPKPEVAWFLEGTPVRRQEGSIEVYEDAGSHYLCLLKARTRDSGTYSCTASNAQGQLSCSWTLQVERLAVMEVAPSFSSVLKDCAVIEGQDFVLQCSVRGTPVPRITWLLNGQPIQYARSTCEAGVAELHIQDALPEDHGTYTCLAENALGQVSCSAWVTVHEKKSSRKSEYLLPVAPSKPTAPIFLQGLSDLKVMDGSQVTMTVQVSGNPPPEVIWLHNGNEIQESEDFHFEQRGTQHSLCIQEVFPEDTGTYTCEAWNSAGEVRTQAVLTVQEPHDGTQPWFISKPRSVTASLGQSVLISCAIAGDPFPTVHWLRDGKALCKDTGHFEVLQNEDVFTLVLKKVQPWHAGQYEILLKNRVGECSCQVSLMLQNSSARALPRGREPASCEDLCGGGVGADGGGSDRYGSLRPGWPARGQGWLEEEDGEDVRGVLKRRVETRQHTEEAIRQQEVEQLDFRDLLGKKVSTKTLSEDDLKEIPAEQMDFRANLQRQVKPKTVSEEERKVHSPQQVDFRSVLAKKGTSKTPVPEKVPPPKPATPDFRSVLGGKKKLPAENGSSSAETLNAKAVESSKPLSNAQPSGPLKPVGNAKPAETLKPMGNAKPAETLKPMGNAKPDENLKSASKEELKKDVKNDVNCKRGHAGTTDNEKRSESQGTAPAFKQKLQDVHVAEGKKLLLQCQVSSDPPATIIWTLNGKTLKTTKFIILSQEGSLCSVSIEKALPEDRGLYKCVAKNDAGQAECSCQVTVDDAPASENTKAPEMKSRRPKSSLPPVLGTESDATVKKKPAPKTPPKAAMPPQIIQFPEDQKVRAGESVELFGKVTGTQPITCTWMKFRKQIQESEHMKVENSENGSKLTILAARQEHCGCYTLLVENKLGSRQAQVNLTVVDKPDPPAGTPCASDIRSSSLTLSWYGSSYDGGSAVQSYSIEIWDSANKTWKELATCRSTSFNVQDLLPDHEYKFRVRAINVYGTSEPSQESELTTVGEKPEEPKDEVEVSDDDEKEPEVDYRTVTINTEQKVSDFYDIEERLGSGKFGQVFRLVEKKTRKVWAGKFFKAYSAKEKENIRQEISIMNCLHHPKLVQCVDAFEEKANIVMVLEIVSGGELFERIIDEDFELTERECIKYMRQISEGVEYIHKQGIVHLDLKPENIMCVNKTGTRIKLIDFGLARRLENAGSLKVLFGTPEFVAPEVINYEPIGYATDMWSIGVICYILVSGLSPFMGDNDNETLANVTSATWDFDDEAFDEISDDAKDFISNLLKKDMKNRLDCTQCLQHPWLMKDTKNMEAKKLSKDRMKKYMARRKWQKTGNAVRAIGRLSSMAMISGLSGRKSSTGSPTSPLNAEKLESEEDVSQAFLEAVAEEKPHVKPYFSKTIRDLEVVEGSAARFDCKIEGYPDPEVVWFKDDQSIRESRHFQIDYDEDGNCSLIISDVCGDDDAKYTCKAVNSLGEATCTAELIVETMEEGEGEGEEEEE
Structure (SMILES),IC50 (MYLK),Ki (SYK kinase),IC50 (LRRK2)
"COc1ccc2nc(Nc3cc(OC)c(OC)c(OC)c3)c3n[nH]cc3c2c1 [Example #67, (8-Methoxy-2H-pyrazolo[3,4-c]quinolin-4-yl)-(3,4,5-trimethoxy-phenyl)-amine]",< 5000 nM,< 10 nM,100 to 1000 nM
"COc1ccc2nc(Nc3ccc4[nH]cnc4c3)c3n[nH]cc3c2c1 [Example #39, (1H-Benzoimidazol-5-yl)-(8-methoxy-2H-pyrazolo[3,4-c]quinolin-4-yl)-amine]",< 5000 nM,10 to 100 nM,100 to 1000 nM
"CN1CCN(c2ccc(Nc3nc4ccc(Br)cc4c4c[nH]nc34)cc2)CC1 [Example #43, (8-Bromo-2H-pyrazolo[3,4-c]quinolin-4-yl)-[4-(4-methyl-piperazin-1-yl)-phenyl]-amine]",< 5000 nM,< 10 nM,100 to 1000 nM
"COc1ccc2nc(Nc3ccc(C(=O)N4CCN(C)CC4)cc3)c3n[nH]cc3c2c1 [Example #235, (4-((8-methoxy-2H-pyrazolo[3,4-c]quinolin-4-yl)amino)phenyl)(4-methylpiperazin-1-yl)methanone]",< 5000 nM,10 to 100 nM,10 to 100 nM
"COc1ccc2c(c1)nc(Nc1ccc3c(c1)NC(=O)CO3)c1n[nH]cc12 [Example #266, 6-((7-methoxy-2H-pyrazolo[3,4-c]quinolin-4-yl)amino)-2H-benzo[b][1,4]oxazin-3(4H)-one]",< 5000 nM,< 10 nM,10 to 100 nM
"COc1ccc2nc(Nc3ccc(OC)c(NC(C)=O)c3)c3n[nH]cc3c2c1 [Example #142, N-[2-Methoxy-5-(8-methoxy-2H-pyrazolo[3,4-c]quinolin-4-ylamino)-phenyl]-acetamide]",< 5000 nM,10 to 100 nM,100 to 1000 nM
"COc1ccc2nc(Nc3cccc(N4CCNCC4)c3)c3n[nH]cc3c2c1 [Example #221, (8-Methoxy-2H-pyrazolo[3,4-c]quinolin-4-yl)-(3-piperazin-1-yl-phenyl)-amine]",< 5000 nM,100 to 1000 nM,100 to 1000 nM
"COc1ccc2nc(Nc3ccccc3)c3n[nH]cc3c2c1 [Example #13, (8-Methoxy-2H-pyrazolo[3,4-c]quinolin-4-yl)-phenyl-amine]",< 5000 nM,10 to 100 nM,100 to 1000 nM
"COc1ccc2nc(Nc3ccc4ncn(C)c4c3)c3n[nH]cc3c2c1 [Example #148, (8-Methoxy-2H-pyrazolo[3,4-c]quinolin-4-yl)-(3-methyl-3H-benzoimidazol-5-yl)-amine]",< 5000 nM,100 to 1000 nM,100 to 1000 nM

# More lines, now with the values ahead:
IC50 (MYLK),Ki (SYK kinase),IC50 (LRRK2),Structure (SMILES)
< 5000 nM,10 to 100 nM,100 to 1000 nM,"COc1ccc2nc(Nc3ccc(CN)cc3)c3[nH]ncc3c2c1 [Example #73, (4-Aminomethyl-phenyl)-(8-methoxy-3H-pyrazolo[3,4-c]quinolin-4-yl)-amine]"
< 5000 nM,10 to 100 nM,100 to 1000 nM,"CN(C)c1ccc(Nc2nc3ccc(Br)cc3c3c[nH]nc23)cc1 [Example #84, N-(8-Bromo-2H-pyrazolo[3,4-c]quinolin-4-yl)-N′,N′-dimethyl-benzene-1,4-diamine]"
< 5000 nM,100 to 1000 nM,100 to 1000 nM,"O=C(O)c1cccc(Nc2nc3ccc(O)cc3c3c[nH]nc23)c1 [Example #296, 3-((8-hydroxy-2H-pyrazolo[3,4-c]quinolin-4-yl)amino)benzoic acid]"
< 5000 nM,100 to 1000 nM,100 to 1000 nM,"COc1ccc2nc(Nc3ccc(OCCN(C)C)nc3)c3n[nH]cc3c2c1 [Example #245, [6-(2-Dimethylamino-ethoxy)-pyridin-3-yl]-(8-methoxy-2H-pyrazolo[3,4-c]quinolin-4-yl)-amine]"
< 5000 nM,< 10 nM,100 to 1000 nM,"COc1ccc2nc(Nc3ccc(N4CCNCC4)cc3)c3n[nH]cc3c2c1 [Example #184, (8-Methoxy-2H-pyrazolo[3,4-c]quinolin-4-yl)-(4-piperazin-1-yl-phenyl)-amine]"
